According to patent US20060135773A1, “Trisubstituted nitrogen modulators of tyrosine phosphatases” (priority 2004, published 2006):
pIC50: −log10 of the molar value. Counter-ions that a name gives are not always drawn.

Target: T1, PTP-1B (Homo sapiens, UniProt P18031)
T1 construct: PTP-1B (purified, 1 mg/mL) as a 1:250 dilution
T1 sequence (P18031 1-321 limits assumed): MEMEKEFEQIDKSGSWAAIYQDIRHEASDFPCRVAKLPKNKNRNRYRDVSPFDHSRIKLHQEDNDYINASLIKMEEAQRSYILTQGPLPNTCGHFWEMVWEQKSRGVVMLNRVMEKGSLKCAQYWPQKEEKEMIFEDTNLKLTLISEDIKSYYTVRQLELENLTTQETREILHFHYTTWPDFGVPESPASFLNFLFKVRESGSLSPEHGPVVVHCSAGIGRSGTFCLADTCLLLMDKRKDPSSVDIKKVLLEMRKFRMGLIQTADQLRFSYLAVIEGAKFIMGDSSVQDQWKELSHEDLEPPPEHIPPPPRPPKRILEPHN
Assay: pNPP tyrosine phosphatase inhibition assay, PTP-1B
Assay type: biochemical
Conditions: pNPP assay, PTP-1B; read-out: Activity Class (IC50 ranges)
Procedure, shortened: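 Test compounds were screened at two final levels, 31.3 and 10 µM, against 4 µg/mL purified PTP-1B. The substrate was 10 mM p-nitrophenyl phosphate, with incubation for 10 min at 30°C before a K2CO3 quench. Activity was taken from A405.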

SMILES | pIC50
COc1ccccc1S(=O)(=O)N(Cc1ccc(C(F)(F)P(=O)(O)O)c(Cl)c1)Cc1ccccc1Oc1ccccc1 [Compound 173, [(2-Chloro-4-{[(2-methoxy-benzenesulfonyl)-(2-phenoxy-benzyl)-amino]-methyl}-phenyl)-difluoro-methyl]-phosphonic acid] | 6.60 to 7.00
COC(=O)c1ccc(-c2ccc(CN(Cc3ccc(C(F)(F)P(=O)(O)O)c(Cl)c3)S(=O)(=O)c3ccccc3OC)cc2)cc1F [Compound 174, 4′-{[[3-Chloro-4-(difluoro-phosphono-methyl)-benzyl]-(2-methoxy-benzenesulfonyl)-amino]-methyl}-3-fluoro-biphenyl-4-carboxylic acid methyl ester] | 6.60 to 7.00
COc1ccccc1S(=O)(=O)N(Cc1ccc(-c2ccc(Cl)c(C(=O)O)c2)cc1)Cc1ccc(C(F)(F)P(=O)(O)O)c(Cl)c1 [Compound 176, 4-Chloro-4′-{[[3-chloro-4-(difluoro-phosphono-methyl)-benzyl]-(2-methoxy-benzenesulfonyl)-amino]-methyl}-biphenyl-3-carboxylic acid] | > 7.00
COc1ccccc1S(=O)(=O)N(Cc1ccc(C(F)(F)P(=O)(O)O)c(Cl)c1)Cc1ccccc1Br [Compound 178, [(4-{[(2-Bromo-benzyl)-(2-methoxy-benzenesulfonyl)-amino]-methyl}-2-chloro-phenyl)-difluoro-methyl]-phosphonic acid] | 6.60 to 7.00
COc1ccccc1S(=O)(=O)N(Cc1ccc(C(F)(F)P(=O)(O)O)c(Cl)c1)Cc1ccccc1-c1cccnc1 [Compound 179, [(2-Chloro-4-{[(2-methoxy-benzenesulfonyl)-(2-pyridin-3-yl-benzyl)-amino]-methyl}-phenyl)-difluoro-methyl]-phosphonic acid] | 6.60 to 7.00
COc1ccccc1S(=O)(=O)N(Cc1ccc(C(F)(F)P(=O)(O)O)c(Cl)c1)Cc1ccccc1-c1ccncc1 [Compound 180, [(2-Chloro-4-{[(2-methoxy-benzenesulfonyl)-(2-pyridin-4-yl-benzyl)-amino]-methyl}-phenyl)-difluoro-methyl]-phosphonic acid] | 6.60 to 7.00
COc1ccccc1S(=O)(=O)N(Cc1ccc(-c2ccc(Cl)c(C(=O)NO)c2)cc1)Cc1ccc(C(F)(F)P(=O)(O)O)c(Cl)c1 [Compound 181, [(2-Chloro-4-{[(4′-chloro-3′-hydroxycarbamoyl-biphenyl-4-ylmethyl)-(2-methoxy-benzenesulfonyl)-amino]-methyl}-phenyl)-difluoro-methyl]-phosphonic acid] | > 7.00
COc1cccc(-c2ccccc2CN(Cc2ccc(C(F)(F)P(=O)(O)O)c(Cl)c2)S(=O)(=O)c2ccccc2OC)c1 [Compound 183, [(2-Chloro-4-{[(2-methoxy-benzenesulfonyl)-(3′-methoxy-biphenyl-2-ylmethyl)-amino]-methyl}-phenyl)-difluoro-methyl]-phosphonic acid] | > 7.00
COC(=O)c1cccc(-c2cccc(CCN(Cc3ccc(C(F)(F)P(=O)(O)O)c(Cl)c3)S(=O)(=O)c3ccccc3OC)c2)c1 [Compound 185, 3′-{2-[[3-Chloro-4-(difluoro-phosphono-methyl)-benzyl]-(2-methoxy-benzenesulfonyl)-amino]-ethyl}-biphenyl-3-carboxylic acid methyl ester] | 6.30 to 6.60
COc1ccccc1S(=O)(=O)N(CCc1ccc(-c2cccc(C(=O)O)c2)cc1)Cc1ccc(C(F)(F)P(=O)(O)O)c(Cl)c1 [Compound 188, 4′-{2-[[3-Chloro-4-(difluoro-phosphono-methyl)-benzyl]-(2-methoxy-benzenesulfonyl)-amino]-ethyl}-biphenyl-3-carboxylic acid] | 6.30 to 6.60
COc1ccccc1S(=O)(=O)N(CCc1cccc(-c2cccc(C(=O)O)c2)c1)Cc1ccc(C(F)(F)P(=O)(O)O)c(Cl)c1 [Compound 189, 3′-{2-[[3-Chloro-4-(difluoro-phosphono-methyl)-benzyl]-(2-methoxy-benzenesulfonyl)-amino]-ethyl}-biphenyl-3-carboxylic acid] | 6.30 to 6.60
NC(=O)c1ccccc1S(=O)(=O)N(Cc1ccccc1)Cc1ccc(C(F)(F)P(=O)(O)O)c(Cl)c1 [Compound 192, [(4-{[Benzyl-(2-carbamoyl-benzenesulfonyl)-amino]-methyl}-2-chloro-phenyl)-difluoromethyl]-phosphonic acid] | 6.30 to 6.60
COc1ccccc1S(=O)(=O)N(Cc1ccc(-c2ccc(CO)c(C(=O)O)c2)cc1)Cc1ccc(C(F)(F)P(=O)(O)O)c(Cl)c1 [Compound 200, 5-{4-[({[4-(difluorophosphonomethyl)-3-chlorophenyl]methyl}[(2-methoxyphenyl)sulfonyl]amino)methyl]phenyl}-2-(hydroxymethyl)benzoic acid,trisodium salt] | 6.60 to 7.00
COc1ccccc1S(=O)(=O)N(Cc1ccc(C(F)(F)P(=O)(O)O)c(Cl)c1)CC12CC3CC(CC(C3)C1)C2 [Compound 201, (Adamantanylmethyl){[4-(difluorophosphonomethyl)-3-chlorophenyl]methyl}[(2-methoxyphenyl)sulfonyl]amine] | 6.30 to 6.60
COc1ccccc1S(=O)(=O)N(Cc1ccc(C(F)(F)P(=O)(O)O)c(Cl)c1)Cc1ccccc1N1CCCCC1 [Compound 208, [(2-Chloro-4-{[(2-methoxy-benzenesulfonyl)-(2-piperidin-1-yl-benzyl)-amino]-methyl}-phenyl)-difluoro-methyl]-phosphonic acid] | 6.30 to 6.60
COc1ccccc1S(=O)(=O)N(Cc1ccc(C(F)(F)P(=O)(O)O)c(Cl)c1)Cc1ccccc1OC(C)C [Compound 211, {[4-(difluorophosphonomethyl)-3-chlorophenyl]methyl}[(2-methoxyphenyl)sulfonyl]{[2-(methylethoxy)phenyl]methyl}amine] | 6.30 to 6.60
COc1ccccc1S(=O)(=O)N(Cc1ccc(C(F)(F)P(=O)(O)O)c(Cl)c1)Cc1ccccc1OCCCC(C)C [Compound 215, {[2-Chloro-4-({(2-methoxy-benzenesulfonyl)-[2-(4-methyl-pentyloxy)-benzyl]-amino}-methyl)-phenyl]-difluoro-methyl}-phosphonic acid] | 6.30 to 6.60
N#Cc1cccc(S(=O)(=O)N(Cc2ccc(C(F)(F)P(=O)(O)O)c(Cl)c2)Cc2ccccc2-c2ccccc2)c1 [Compound 216, [(4-{[Biphenyl-2-ylmethyl-(3-cyano-benzenesulfonyl)-amino]-methyl}-2-chloro-phenyl)-difluoro-methyl]-phosphonic acid] | 6.30 to 6.60

Now from value to compound:

pIC50 | SMILES
6.30 to 6.60 | COc1ccccc1S(=O)(=O)N(Cc1ccc(OCc2ccccc2)cc1)Cc1ccc(C(F)(F)P(=O)(O)O)c(Cl)c1 [Compound 172, [(4-{[(4-Benzyloxy-benzyl)-(2-methoxy-benzenesulfonyl)-amino]-methyl}-2-chloro-phenyl)-difluoro-methyl]-phosphonic acid]
6.30 to 6.60 | CCOC(=O)c1cc(-c2ccc(CN(Cc3ccc(C(F)(F)P(=O)(O)O)c(Cl)c3)S(=O)(=O)c3ccccc3OC)cc2)ccc1Cl [Compound 175, 4-Chloro-4′-{[[3-chloro-4-(difluoro-phosphono-methyl)-benzyl]-(2-methoxy-benzenesulfonyl)-amino]-methyl}-biphenyl-3-carboxylic acid ethyl ester]
> 7.00 | COc1ccccc1S(=O)(=O)N(Cc1ccc(-c2ccc(C(=O)O)c(F)c2)cc1)Cc1ccc(C(F)(F)P(=O)(O)O)c(Cl)c1 [Compound 177, 4′-{[[3-Chloro-4-(difluoro-phosphono-methyl)-benzyl]-(2-methoxy-benzenesulfonyl)-amino]-methyl}-3-fluoro-biphenyl-4-carboxylic acid]
6.30 to 6.60 | COC(=O)c1cccc(-c2ccc(CCN(Cc3ccc(C(F)(F)P(=O)(O)O)c(Cl)c3)S(=O)(=O)c3ccccc3OC)cc2)c1 [Compound 182, 4′-{2-[[3-Chloro-4-(difluoro-phosphono-methyl)-benzyl]-(2-methoxy-benzenesulfonyl)-amino]-ethyl}-biphenyl-3-carboxylic acid methyl ester]
6.60 to 7.00 | COc1ccccc1S(=O)(=O)N(Cc1ccc(C(F)(F)P(=O)(O)O)c(Cl)c1)Cc1ccccc1-c1cccc(O)c1 [Compound 184, [(2-Chloro-4-{[(3′-hydroxy-biphenyl-2-ylmethyl)-(2-methoxy-benzenesulfonyl)-amino]-methyl}-phenyl)-difluoro-methyl]-phosphonic acid]
6.60 to 7.00 | COc1ccccc1S(=O)(=O)N(Cc1ccc(C(F)(F)P(=O)(O)O)c(Cl)c1)Cc1ccccc1-c1cccc(C(N)=O)c1 [Compound 186, [(4-{[(3′-Carbamoyl-biphenyl-2-ylmethyl)-(2-methoxy-benzenesulfonyl)-amino]-methyl}-2-chloro-phenyl)-difluoro-methyl]-phosphonic acid]
6.60 to 7.00 | COc1ccccc1S(=O)(=O)N(Cc1ccc(-c2ccc3c(c2)C(=O)OC3)cc1)Cc1ccc(C(F)(F)P(=O)(O)O)c(Cl)c1 [Compound 197, 6-{4-[({[4-(difluorophosphonomethyl)-3-chlorophenyl]methyl}[(2-methoxyphenyl)sulfonyl]amino)methyl]phenyl}-3-hydroisobenzofuran-1-one]
6.30 to 6.60 | NC(=O)c1cccc(S(=O)(=O)N(Cc2ccc(C(F)(F)P(=O)(O)O)c(Cl)c2)Cc2ccccc2-c2ccccc2)c1 [Compound 214, [(4-{[Biphenyl-2-ylmethyl-(3-carbamoyl-benzenesulfonyl)-amino]-methyl}-2-chloro-phenyl)-difluoro-methyl]-phosphonic acid]
